Source: patent publication US7282507B2, “Indole derivatives as selective androgen receptor modulators (SARMS)” (Janssen Pharmaceutica N.V., priority 2004, dated 2007)
“And” between values parts separate entries of the source, which are not always exact repeats. Equal values may be shown once. Each block holds one compound with its values, some of them ahead of it.

Columns and labels:
[1] = biological target: T1, androgen receptor LBD (Panvera) (Rattus norvegicus, UniProt P15207); assay: Androgen Receptor Filtration Binding Assay (PANVERA); settings: [3H] R1881 tracer 0.5 nM; read-out: IC50 (nM), Androgen Receptor Binding (Panvera)
T1 construct: 5 pmol androgen receptor LBD (Panvera); purchased Panvera
T1 sequence (P15207 651-882 limits assumed): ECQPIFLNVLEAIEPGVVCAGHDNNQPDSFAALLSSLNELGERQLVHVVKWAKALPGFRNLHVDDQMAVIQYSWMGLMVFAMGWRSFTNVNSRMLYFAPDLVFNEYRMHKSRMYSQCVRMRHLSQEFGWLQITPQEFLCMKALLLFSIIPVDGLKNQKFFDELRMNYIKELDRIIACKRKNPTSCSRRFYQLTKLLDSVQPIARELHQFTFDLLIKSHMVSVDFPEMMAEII
Protocol: The assay was run on a 96 well plate with each well filled with a total reaction volume 150 μL, of a solution containing 5 pmol androgen receptor LBD (Panvera) or 30 μL of freshly prepared rat cytosol, 0.5 nM [^3H] […] (TED buffer contains 10 mM Tris.HCl pH 7.4, 1 mM sodium molybdate, 1.5 mM EDTA, 1 mM DTT and 10% (v/v) glycerol.)
On day one, the solution containing receptor, tracer and TED buffer was distributed into a 96 well plate. Diluted test compound or control vehicle was then added to individual wells and the plate incubated at 4° C. overnight.
On day two, to each well was then added 20 μL human γ-globulin (ICN 823102), prepared at 25 mg/ml in TE pH 8.0, and 55 μL 40% polyethylene glycol 8000 (J T Baker U222-08), prepared in TE pH 8.0. The plate was incubated at 4° C. for 60 minutes. During incubation, the harvester was rinsed with 10% PEG 8000, prepared in TE pH 8.0, and a GF/C Unifilter-96 was pre-wet with 10% PEG. The binding reaction was filtered, the retentate was washed three times with 10% PEG and dried under vacuum for a couple of minutes, then dried at 50° C. for 5 min and the plate was bottom sealed. Next, 25 μL of Microscint-20 (Packard) was added to the filter wells and the plate was top sealed. The plate wells were then counted on a TopCount (Packard).
Counts per well were measured and IC50s determined by linear regression.

[2] = biological target: T2, androgen receptor (rat ventral prostate cytosol) (Rattus norvegicus, UniProt P15207); assay: Androgen Receptor Binding Using Rat Ventral Prostate Cytosol; settings: for inhibition at 1 µM / % Inhibition, Androgen Receptor Binding (Rat Cytosol): Concentration 1000 nM; for inhibition at 1 µM: read-out: % Inhibition, Androgen Receptor Binding (Rat Cytosol); for IC50: read-out: IC50 (nM), Androgen Receptor Binding (Rat Cytosol)
T2 construct: from tissue; host or cells: ventral prostate cytosol of castrated male Sprague Dawley or Wistar rats
T2 sequence (P15207 1-902): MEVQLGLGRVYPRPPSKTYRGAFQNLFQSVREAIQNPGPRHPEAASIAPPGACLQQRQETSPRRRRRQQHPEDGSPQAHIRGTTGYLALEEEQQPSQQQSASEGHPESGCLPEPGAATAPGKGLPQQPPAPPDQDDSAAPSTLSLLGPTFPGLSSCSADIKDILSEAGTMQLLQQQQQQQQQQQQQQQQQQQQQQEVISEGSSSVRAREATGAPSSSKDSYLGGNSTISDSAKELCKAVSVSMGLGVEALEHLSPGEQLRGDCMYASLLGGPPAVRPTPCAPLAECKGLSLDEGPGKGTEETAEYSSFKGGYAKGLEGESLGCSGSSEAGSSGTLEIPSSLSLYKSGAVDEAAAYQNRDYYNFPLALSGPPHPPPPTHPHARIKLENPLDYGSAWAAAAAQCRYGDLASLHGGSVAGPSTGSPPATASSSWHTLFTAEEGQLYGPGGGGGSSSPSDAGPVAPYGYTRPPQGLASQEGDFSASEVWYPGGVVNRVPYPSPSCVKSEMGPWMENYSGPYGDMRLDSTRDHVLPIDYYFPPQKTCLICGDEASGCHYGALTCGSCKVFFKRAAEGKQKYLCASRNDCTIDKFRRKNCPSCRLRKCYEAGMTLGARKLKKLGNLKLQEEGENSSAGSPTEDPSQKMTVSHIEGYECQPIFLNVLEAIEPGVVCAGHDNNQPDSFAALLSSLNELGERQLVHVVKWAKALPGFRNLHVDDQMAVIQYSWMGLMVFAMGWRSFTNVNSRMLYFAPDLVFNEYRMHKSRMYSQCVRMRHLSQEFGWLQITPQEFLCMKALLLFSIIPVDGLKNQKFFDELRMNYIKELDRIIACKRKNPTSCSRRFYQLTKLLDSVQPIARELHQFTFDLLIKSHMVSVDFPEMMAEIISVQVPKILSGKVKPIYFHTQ
How it was run: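 Cytosol from castrated rat ventral prostate was incubated overnight at 4°C with 0.5 nM [3H] tracer and compound in TED buffer (10 mM Tris-HCl pH 7.4, molybdate, EDTA, DTT, glycerol).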

[3] = biological target: T3, androgen receptor (AdEasy+rAR, COS-7 cells) (Rattus norvegicus, UniProt P15207); assay: COS-7 Whole-Cell Androgen Receptor Binding Assay, Adenovirus Transduction; settings: for IC50: read-out: IC50 (nM), COS Binding
T3 construct: expressed in transfected cells; host or cells: COS-7 cells transduced with adenovirus AdEasy+rAR
T3 sequence (P15207 1-902): T2 sequence (P15207 1-902)
How it was run: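 COS-7 cells in phenol red-free DMEM/F12 with 10% charcoal-treated FBS were transduced with AdEasy+rAR adenovirus (moi 1:50 per well), exposed to test compound in duplicate and incubated for 48 h at 37° C. Cells were then lysed in 0.5% Triton X-100 and bound radioactivity counted by scintillation.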

[4] = biological target: T4, androgen receptor (AdEasy+rAR, L929 cells) (Rattus norvegicus, UniProt P15207); assay: L929 Androgen Receptor Functional Assay, Adenovirus Transduction; assay type: cell-based; settings: for inhibition at 3 µM: L929, antagonist testing with R1881, 3000 nM; for EC50 / % Activity, L929 androgen receptor functional assay: agonist testing; for IC50: antagonist testing with R1881
T4 construct: expressed in transfected cells; host or cells: L929 cells transduced with adenovirus AdEasy+rAR
T4 sequence (P15207 1-902): T2 sequence (P15207 1-902)
How it was run: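 L929 cells in phenol red-free, charcoal-stripped serum medium transduced with AdEasy+rAR (moi 1:500) and exposed 48 h at 37 °C to compound alone (agonist mode) or with R1881 (antagonist mode; 2.5 nM as the 2.5× dilution).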

[5] = test system: testosterone-enhanced ventral prostate and seminal vesicle weights; assay: Ventral Prostate and Seminal Vesicle Weight in vivo Assay; design: species or system rat; settings: immature castrated male Sprague Dawley rats, once daily for five days, usually orally 40 mg/kg, with testosterone propionate 2 mg/kg s.c. Note: key: 'active' if the non weight adjusted prostate weight was ≦40 mg or the % Inhibition prostate weight, body weight adjusted was ≧40% @ 2 mg/day dosage; ID50's, if determined, of ≦15 mg/day also indicated an 'active' compound; listed herein as 'inactive' as they did not meet the specified criteria defined above.
How it was run: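 Immature castrated male Sprague Dawley rats (~50 g) were dosed once daily for five days with compound, usually orally at 40 mg/kg in cyclodextrin or methylcellulose vehicle. Testosterone propionate was co-dosed subcutaneously at 2 mg/kg. On day six, ventral prostate and seminal vesicle wet weights were measured; activity was judged on prostate weight or body-weight-adjusted % inhibition.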

SMILES: COC(=O)c1ccc2c(c1)cc(C(C)(O)CSc1ccc(F)cc1)n2S(C)(=O)=O (centres unmarked) [Compound 98]
IC50 [1]: 8500 nM
inhibition at 1 µM [2]: -31%

SMILES: CC(O)(CSc1ccc(Cl)cc1)c1cc2cc(Cl)c(C(F)(F)F)cc2[nH]1 (centres unmarked) [Compound 82]
IC50 [1]: 185 nM and 200 nM
% Inhibition, Androgen Receptor Binding (Rat Cytosol) ([2]; 1 µM): 83%
inhibition at 1 µM [2]: 69.8%
IC50 [2]: 640 nM

SMILES: CC(O)(Sc1ccc(Cl)cc1)c1cc2cc(C#N)c(C(F)(F)F)cc2[nH]1 (racemic) [Compound 261]
IC50 [1]: 1460 nM
% Inhibition, Androgen Receptor Binding (Rat Cytosol) [2]: 14.05%

SMILES: CC(O)(CSc1ccccc1)c1cc2cc(Cl)c(C(F)(F)F)cc2[nH]1 (centres unmarked) [Compound 106]
IC50 [1]: 225 nM
inhibition at 1 µM [2]: 63%
IC50 [2]: 300 nM

SMILES: CC(O)(CSc1ccc([N+](=O)[O-])cc1)c1cc2cc([N+](=O)[O-])c(C(F)(F)F)cc2[nH]1 (centres unmarked) [Compound 103]
IC50 [1]: 1650 nM

SMILES: CC(O)(SC1CCCCC1)c1cc2cc(C#N)c(C(F)(F)F)cc2[nH]1 (racemic) [Compound 257]
IC50 [1]: 5150 nM

SMILES: CCS(=O)(=O)CC(C)(O)c1cc2cc(C#N)c(C(F)(F)F)cc2[nH]1 (single isomer, unassigned) [Compound 222, 2-(2-Ethanesulfonyl-1-hydroxy-1-methyl-ethyl)-6-trifluoromethyl-1H-indole-5-carbonitrile]
inhibition at 3 µM ([3]; concentration of 3000 nM): 42%
IC50 [3]: 1580 nM
inhibition at 3 µM [4]: 61%
EC50 [4]: > 8000 nM
% Activity, L929 androgen receptor functional assay ([4]; @ 8000 nM): 0 @ 8000 nM %
IC50 [4]: 2410 nM
active / inactive: inhibition of testosterone-enhanced prostate weight [5]: active

SMILES: CCSCC(C)(O)c1cc2cc(C#N)c(C(F)(F)F)cc2[nH]1 (centres unmarked) [Compound 209]
inhibition at 3 µM ([3]; concentration of 3000 nM): 61%
IC50 [3]: 1840 nM
EC50 [4]: > 8000 nM
% Activity, L929 androgen receptor functional assay ([4]; @ 8000 nM): −3 @ 8000 nM %
IC50 [4]: 372 nM
active / inactive: inhibition of testosterone-enhanced prostate weight [5]: active

IC50 [1]: > 9600 nM
SMILES: CC(O)(CSc1ccc(Cl)cc1)c1cc2ccccc2[nH]1 (centres unmarked) [Compound 89]

SMILES: CCSCC(C)(O)c1cc2cc([N+](=O)[O-])cc(C(F)(F)F)c2[nH]1 (centres unmarked) [Compound 212]
inhibition at 3 µM ([3]; concentration of 3000 nM): 86%
IC50 [3]: 98 nM
inhibition at 3 µM [4]: 101%
% Activity, L929 androgen receptor functional assay ([4]; 3000 nM): −3%
active / inactive: inhibition of testosterone-enhanced prostate weight [5]: active

SMILES: CC(O)(Sc1ccc(Cl)cc1)c1cc2cc([N+](=O)[O-])c(C(F)(F)F)cc2[nH]1 (racemic) [Compound 259]
IC50 [1]: 915 nM

SMILES: CC(O)(CSCC(F)(F)F)c1[nH]c2cc(C(F)(F)F)c([N+](=O)[O-])cc2c1I (centres unmarked) [Compound 213]
inhibition at 3 µM ([3]; concentration of 3000 nM): 71%
IC50 [3]: > 600 nM
inhibition at 3 µM [4]: 92%
EC50 [4]: > 8000 nM
% Activity, L929 androgen receptor functional assay ([4]; @ 8000 nM): −1 @ 8000 nM %
IC50 [4]: 372 nM
active / inactive: inhibition of testosterone-enhanced prostate weight [5]: active

SMILES: CN(C)c1ccccc1SCC(C)(O)c1cc2cc(Cl)c(C(F)(F)F)cc2[nH]1 (centres unmarked) [Compound 127]
% Inhibition, COS Binding ([3]; concentration of 3000 nM, 3 µM): 41% and 74%
IC50 [3]: > 1200 nM
% Activity, L929 androgen receptor functional assay ([4]; 3000 nM): −5%
active / inactive: inhibition of testosterone-enhanced prostate weight [5]: inactive

SMILES: CCSCC(C)(O)c1cc2cc(C#N)c(C(F)(F)F)cc2n1C (centres unmarked) [Compound 236]
inhibition at 3 µM ([3]; concentration of 3000 nM): 83%
IC50 [3]: 105 nM
inhibition at 3 µM [4]: 103%
% Activity, L929 androgen receptor functional assay ([4]; 3000 nM): 2%
IC50 [4]: 821 nM
active / inactive: inhibition of testosterone-enhanced prostate weight [5]: active
